Measurements as given in article PMC6502838, “Low potential enzymatic hydride transfer via highly cooperative and inversely functionalized flavin cofactors” (Nature Communications, 2019).

Molecular target: T1, 2-Naphthoyl-CoA reductase (NCR) (uncultured Desulfobacterium sp., UniProt E1YD54)
T1 construct: gene N47_G38220; Strep-tag fusion, E. coli host, monomer; TIM barrel 19-359, linker 360-400 with [4Fe-4S], FAD domain 401-503 + 626-674, alpha/beta domain 504-625
T1 sequence (E1YD54 1-670): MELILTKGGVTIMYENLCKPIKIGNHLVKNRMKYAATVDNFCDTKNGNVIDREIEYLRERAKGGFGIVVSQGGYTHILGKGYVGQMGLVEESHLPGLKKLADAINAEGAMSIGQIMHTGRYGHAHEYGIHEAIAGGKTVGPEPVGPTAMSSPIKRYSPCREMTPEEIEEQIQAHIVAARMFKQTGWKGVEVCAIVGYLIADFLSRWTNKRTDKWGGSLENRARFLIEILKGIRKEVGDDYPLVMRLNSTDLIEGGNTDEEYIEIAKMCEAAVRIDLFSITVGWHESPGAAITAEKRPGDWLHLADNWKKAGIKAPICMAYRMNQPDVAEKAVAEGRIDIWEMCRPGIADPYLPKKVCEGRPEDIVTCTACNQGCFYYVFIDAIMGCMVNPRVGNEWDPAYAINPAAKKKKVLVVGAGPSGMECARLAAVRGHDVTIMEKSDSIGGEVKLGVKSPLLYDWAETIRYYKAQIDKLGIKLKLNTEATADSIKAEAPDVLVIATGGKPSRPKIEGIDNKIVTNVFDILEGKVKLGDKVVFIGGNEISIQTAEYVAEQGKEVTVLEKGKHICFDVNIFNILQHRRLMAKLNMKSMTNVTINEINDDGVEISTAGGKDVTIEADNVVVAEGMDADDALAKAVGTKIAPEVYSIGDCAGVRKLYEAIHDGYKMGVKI
Experiment: X-ray crystal structure, soaked, […] A
Type: binding
Settings: crystals soaked with 0.5 mM NCoA, pH 6.5-7.0, 2 h, 4 C; active site, stacked on FMN; incompletely occupied

## CC(C)(COP(=O)(O)OP(=O)(O)OC[C@H]1O[C@@H](n2cnc3c(N)ncnc32)[C@H](O)[C@@H]1OP(=O)(O)O)[C@@H](O)C(=O)NCCC(=O)NCCSC(=O)c1ccc2ccccc2c1 [NCoA]
  X-ray crystal structure, soaked, 2.2 A: structure in complex with the substrate NCoA and the product DHNCoA were determined
